# Test results published in patent publication US20260130951A1, “GLYCYRRHIZIN-GLYCOL CHITOSAN CONJUGATE-COATED IRON OXIDE NANOPARTICLES AND USE THEREOF” (Industry-University Cooperation Foundation Hanyang …, priority 2018, published 2026).
# Columns and labels:
# [1] = Liver lobe distribution after hepatic portal vein injection of methylene blue solution; assay type: in vivo, balb/c mice; settings: about 24 hours
# Experimental: After zoletil and rumpun were injected into the abdominal cavity of balb/c mice at a ratio of 9:1 to anesthetize them, a methylene blue solution was injected by hepatic portal vein […]. After waiting for about 24 hours for tissue fixation of the methylene blue solution, all liver lobes were isolated by sacrificing the mice. The isolated liver lobes were fixed with a 10% formalin solution, made into a paraffin block, and cut into a thickness of 5 μm to prepare a tissue section slide. Thereafter, paraffin was removed from the tissue section slide, the slide was rehydrated, and then the tissue section was stained with a Harris hematoxylin solution and an eosin solution, and observed under an optical microscope.
# [2] = about 5 mg/kg intravenously injected; cited from earlier work
SMILES,distribution of methylene blue solution among liver lobes (image J) [1],time glycyrrhizin remains in the body [2]
"CN(C)c1ccc2nc3ccc(=[N+](C)C)cc-3sc2c1 [methylene blue solution, methylene blue]",present in the largest amount in Mediate 1,–
CC1(C)[C@@H](O[C@H]2O[C@H](C(=O)O)[C@@H](O)[C@H](O)[C@H]2O[C@@H]2O[C@H](C(=O)O)[C@@H](O)[C@H](O)[C@H]2O)CC[C@]2(C)[C@H]3C(=O)C=C4[C@@H]5C[C@@](C)(C(=O)O)CC[C@]5(C)CC[C@@]4(C)[C@]3(C)CC[C@@H]12 [glycyrrhizin],–,≤ 15 min
